# Measurements from ChEMBL document CHEMBL2094269, “WEHI/Eskitis Trypanosoma b. brucei screening data”.
# Several values for one entry are separate records, joined by “and”; a condition that tells them apart may be missing. Equal entries are not always repeated.
# System: Trypanosoma brucei brucei
# Assay: microbe, parasite or virus in culture
# Assay type: functional, organism-based, STIB 795
# Description: DNDI: Inhibition of Human African Trypanosomiasis (HAT), STIB 795, in vitro
Structure (SMILES),"IC50 (Trypanosoma brucei, STIB 795)",IC50
O=c1cc(-c2ccccc2)c2ccc(O)c(O)c2o1,> 10.4 µM,–
Cc1cc(N)n2ncc(-c3ccc(Cl)cc3)c2n1,> 10.4 µM,–
CC(C)COCc1ccc(O)c2ncccc12,> 10.4 µM,–
CCn1c(C)cc(=S)c2ccccc21,> 10.4 µM,–
CCCCOc1ccc(C(=O)NNC(=S)NC(=O)CC)cc1,> 10.4 µM,–
Cc1ccc(Cl)cc1N1CCN(CCN)CC1,> 10.4 µM,–
Cc1ccc(C(=N)NOC(=O)c2ccco2)cc1,> 10.4 µM,–
Oc1ccc(CNc2ccccc2F)c2cccnc12,> 10.4 µM,–
O=C1C(C2=C(O)c3ccccc3C2=O)=Nc2ccccc21,> 10.4 µM,–
Cc1ccc(C(=N)NOC(=O)c2cccs2)cc1,> 10.4 µM,–
COc1ccc(NC2=NC(=O)C(CO)(CO)S2)cc1,> 10.4 µM,–
Cc1occc1C(=O)O/N=C(\N)c1ccc(Cl)cc1,> 10.4 µM,–
CCC(=O)c1coc2ccc(O)cc12,> 10.4 µM,–
O=C(NO)c1ccccc1C(F)(F)F,> 10.4 µM,–
N=C(NOC(=O)c1cccc(Cl)c1)c1cccnc1,> 10.4 µM,–
CCN1CCS/C1=C\C=C\C1=[N+](CC)CCS1,–,0.39 µM and 0.092 µM
CN(C)CC(C(=O)c1ccccc1)c1ccccc1 (stereo not given),> 10.4 µM,–
O=NC1=C(c2c(O)[nH]c3ccccc23)CCCC1,> 10.4 µM,–
CC1CC(NC2CCCCC2)=Nc2ccccc2N1Cc1ccccc1 (stereo not given),> 10.4 µM,–
Cn1c(=O)cc(NNc2ccccc2)[nH]c1=O,> 10.4 µM,–
CCn1nc(-c2ccc(OC)cc2)nc2c(=O)n(C)c(=O)nc1-2,> 10.4 µM,–
COc1cccc(Nc2nc(N)c(C(=O)c3ccccc3F)s2)c1,> 10.4 µM,–
O=C(CSc1nc2[nH]ncc2c(=O)n1-c1ccccc1)Nc1nccs1,> 10.4 µM,–
CCOC(=O)COC1=C(c2ccccc2)C(=O)c2ccccc2C1=O,> 10.4 µM,–
Cn1nc(-c2cccs2)nc2c(=O)n(C)c(=O)nc1-2,> 10.4 µM,–

Structure (SMILES),"IC50 (Trypanosoma brucei, STIB 795)",IC50
C=C1N(CCCCN2C(=C)C(C)(C)c3ccccc32)c2ccccc2C1(C)C,> 10.4 µM,–
Cc1ccccc1C(=O)/C(C#N)=N/Nc1c(C)n(C)n(-c2ccccc2)c1=O,> 10.4 µM,–
O=C(N/N=C/c1ccc(O)c2ncccc12)c1ccco1,> 10.4 µM,–
O=c1c2ccccc2nc(SCc2cccnc2)n1Cc1ccco1,> 10.4 µM,–
CC(=O)N1/C(=C/c2ccncc2)C(=O)c2ccccc21,> 10.4 µM,–
CN(C)CCC1=Cc2cc(Cl)ccc2Sc2ccccc21,> 10.4 µM,–
Cc1ccc2[nH]c3c(c2c1)CCCC3NCCCOc1ccc(F)cc1 (stereo not given),> 10.4 µM,–
CCN(CC)c1ccc(N)c(C)c1,> 10.4 µM,–
N=C1C=Cc2ccc(N)c3cccc1c23,> 10.4 µM,–
Cc1ncc(C)c2c1[nH]c1ccccc12,> 10.4 µM,–
CCc1no[c+](-c2ccccc2O)n1C,> 10.4 µM,–
Clc1nn2nnnc2c2ccccc12,> 10.4 µM,–
CC1CCc2nc3ccccc3c(N)c2C1 (stereo not given),> 10.4 µM,–
CCc1c(C)nc(SCC#N)c(C#N)c1C,> 10.4 µM,–
CC1=C(C)C(=O)C(c2cccs2)=C(C)C1=O,> 10.4 µM,–
Oc1cccc2ccc(Nc3ccccc3)nc12,> 10.4 µM,–
NC(=S)N/N=C/c1sc(=O)[nH]c1Cl,> 10.4 µM,–
O=C1/C(=N\c2ccccc2)Sc2ccccc21,> 10.4 µM,–
CNc1nsc(C(=O)c2ccc(C)cc2)c1N,> 10.4 µM,–
ON=C(/C=C/c1ccccc1)/C=C/c1ccccc1,> 10.4 µM,–
CC1=C(C#N)C(C)C2=C(c3ccccc3C2=O)N1C (stereo not given),> 10.4 µM,–
CC(=O)c1ccc2c(c1)[nH]c1cc(C(C)=O)ccc12,> 10.4 µM,–
Cc1ccccc1C(=O)O/N=C(\N)c1ccccn1,> 10.4 µM,–
Oc1ccc2ccccc2c1/N=N/c1nccs1,> 10.4 µM,–
O=C1C(=O)N(CO)c2ccc(Br)cc21,> 10.4 µM,–

Structure (SMILES),"IC50 (Trypanosoma brucei, STIB 795)",IC50
CCn1c(-c2ccccc2Cl)nc2ccccc21,> 10.4 µM,–
N/C(=N\OC(=O)c1ccccc1F)c1ccccc1,> 10.4 µM,–
N/C(=N\OC(=O)c1ccc(F)cc1)c1cccnc1,> 10.4 µM,–
CCC(=O)NCCc1nc(-c2ccccc2)cs1,> 10.4 µM,–
O=C(/C=C/n1c(=O)oc2ccccc21)c1ccccc1,> 10.4 µM,–
ON=C1C=CC(=NNc2nncc3ccccc23)C=C1,> 10.4 µM,–
O=C(/C=C/c1ccc(F)cc1)n1cnc2ccccc21,> 10.4 µM,–
Cc1c(-c2cccc(O)c2)ccc2nc(N)nc(N)c12,> 10.4 µM,–
O=C(Nc1cc(Cl)cc(Cl)c1)c1ccccn1,> 10.4 µM,–
Cc1ccc(OCCn2c(N)nc3ccccc32)cc1,> 10.4 µM,–
Cc1c(-c2ccc(O)c(O)c2)oc2ccccc2c1=O,> 10.4 µM,–
Cc1ccc(O)c(C(=O)CC(=O)c2ccccc2C)c1,> 10.4 µM,–
O=C1c2ccccc2C2=NS(=O)(=O)c3cccc1c32,> 10.4 µM,–
O=C(CCN1CCC(c2ccccc2)C1)c1ccco1 (stereo not given),> 10.4 µM,–
CCN(CC)c1cc(C)nc(NCc2ccccc2)n1,> 10.4 µM,–
COc1ccc(C(=O)O/N=C(\N)c2cccnc2)cc1,> 10.4 µM,–
COc1ccc(/C(C)=N\Nc2nnc(C)c(O)n2)cc1,> 10.4 µM,–
COc1ccc(O)c(/C=N/NC(=O)c2nonc2C)c1,> 10.4 µM,–
O=c1oc2ccccc2n1Cc1c(F)cccc1Cl,> 10.4 µM,–
COc1ccc(/N=N/c2ccc(O)c3ncccc23)cc1,> 10.4 µM,–
CCCC(CCC)C(=O)Nc1ccc(O)cc1C(=O)O,> 10.4 µM,–
O=c1[nH]c(NCCCO)nc2sc3c(c12)CCCC3,> 10.4 µM,–
Cc1cc(=O)[nH]c(Nc2ccc(Br)cc2)n1,> 10.4 µM,–
C(=N\Nc1nc(-c2ccccc2)cs1)/c1ccncc1,> 10.4 µM,–
Oc1ccccc1/C=N/Nc1ncc(Cl)cc1Cl,> 10.4 µM,–

Structure (SMILES),"IC50 (Trypanosoma brucei, STIB 795)",IC50
O=C(Cn1ncc(Cl)c(Cl)c1=O)c1ccccc1,> 10.4 µM,–
Cc1cc(C)c(CCCc2c(C)nc(N)nc2N)cc1C,> 10.4 µM,–
C=CCc1cccc(/C=N/NC(=O)c2nonc2C)c1O,> 10.4 µM,–
Cc1ccccc1-c1nnnn1C1CC(=O)C2OCC1O2 (stereo not given),4.58 µM,4.75 µM
c1ccc(Oc2cccc(-c3nc4ccccc4[nH]3)c2)cc1,> 10.4 µM,–
Cc1cnc(NC(=O)c2ccc(Cl)c(Cl)c2)s1,> 10.4 µM,–
CCOC(=O)Cc1ccc(NCc2ccc(F)cc2)cc1,> 10.4 µM,–
COc1ccc(/C(N)=N/OC(=O)c2cccc(F)c2)cc1,> 10.4 µM,–
CCC(=O)c1ccc(Oc2cc(=O)n(C)c(=O)n2C)cc1,> 10.4 µM,–
C/C(=N\NC(=O)c1cccc(Cl)c1)c1ccccc1O,> 10.4 µM,–
Oc1ccccc1/C=N\NC(=S)Nc1ccc(F)cc1,> 10.4 µM,–
CCN1/C(=C/C2=CC(=O)CC(C)(C)C2)Sc2ccccc21,5.4 µM,5.54 µM
Cn1c(-c2ccco2)nn(C2CC(=O)C3OCC2O3)c1=S (stereo not given),5.5 µM,3.25 µM
Cc1c(C)n(CC(O)CNCc2ccccc2)c2ccccc12 (stereo not given),5.49 µM,7.63 µM
O=C1CC(n2nnn(C3CCCCC3)c2=S)C2COC1O2 (stereo not given),–,5.11 µM and 1.33 µM
CCN(CC)c1ccc(CNCCc2c(C)[nH]c3ccccc23)cc1,5.01 µM,3.4 µM
Cc1ccc(OCc2nn(C3CC(=O)C4OCC3O4)c(=S)n2C)cc1C (stereo not given),4.31 µM,4.62 µM
COc1ccc(-c2nn(C3CC(=O)C4OCC3O4)c(=S)n2C)cc1OC (stereo not given),4.53 µM,5.08 µM
Cc1cc2cc3c(cc2c(C)n1)c1ccccc1n3C,5.19 µM,4.73 µM
CN(C)c1ccc(/C=C2\SC(=N)N(c3nccs3)C2=O)cc1,–,6.09 µM and 15.5 µM
CCCCNc1ccc2cccc(O)c2n1,> 10.4 µM,–
C=CCc1cccc(/C=N/NC(=O)c2cccs2)c1O,> 10.4 µM,–
